Source: paper PMC4076215, “Nickel(II) Complex of Polyhydroxybenzaldehyde N4-Thiosemicarbazone Exhibits Anti-Inflammatory Activity by Inhibiting NF-κB Transactivation” (PLoS ONE, 2014)
“Also recorded” adds a separate entry of the source.

Assays:
[1] = tested on: NF-κB p65 nuclear translocation; test: NF-κB p65 immunofluorescence staining, LPS-stimulated RAW264.7; type: cell-based; conditions: RAW264.7, 25 µg/ml pre-treatment 4 h, LPS 1 h
Procedure: NF-κB Activation Kits (Thermo Scientific) were used as previously described. Cells were pretreated with compounds for 4 h before being stimulated with lipopolysaccharide (LPS) ortumour necrosis factor α (TNFα) for 1 h. Cells were then fixed and permeabilized before probing with NF-κB p65 antibody for 1 h. Staining solution (containing DyLight 488 Goat Anti-Rabbit and Hoechst dye) was then added and incubated for 1 h. The plate with stained cells was evaluated using a Cellomics ArrayScan HCS Reader (Cellomics, PA, USA). Data were captured, extracted and analyzed with ArrayScan II Data Acquisition and Data Viewer version 3.0 (Cellomics).
NF-κB acts as a central mediator of inflammatory responses and compounds that inhibit NF-κB activation are potential anti-inflammatory agents. To evaluate this, we performed immunofluorescence staining of NF-κB p65. […] In response to LPS stimulation, NF-κB p65 translocated from cytoplasm into the nucleus, implying NF-κB activation (Figure 3). […] Moreover, we observed that complex 6–8 required higher concentration (>50 µg/ml) to elicit similar inhibitory effect (data not shown).
Figure 3 Effect of N4-substituteted thiosemicarbazone complexes on LPS-induced NF-κB nuclear transloction in RAW264.7 macrophage cells. Staining of Hoechst (nucleus) and NF-κB in RAW264.7 cells. […]

[2] = tested on: NF-κB target genes TNFα, IFNβ, IL6 and IP10; test: Quantitative PCR of NF-κB target genes, LPS-treated RAW264.7; type: cell-based; conditions: RAW264.7, pretreated 4 h, LPS 4 h
Procedure: Cells pretreated with or without of complex 5 for 4 h were incubated with LPS or TNFα for 4 h. Total RNAs were isolated with Thermo Scientific GeneJET RNA Purification Kit. Complimentary DNAs were synthesized and Quantitative PCR was performed with 2× SYBR Green PCR Master mix (Thermo Scientific) and run on the Bio-Rad CFX 96 Real-Time PCR System. All data were then normalized to L32. The sequences of the primers are listed in Supporting Information Table S1.
To test if complex 5 inhibits NF-κB-mediated gene expression, we cultured RAW264.7 cells with or without complex 5 for 4 h before treating the cells with LPS for 4 h. Cells were collected for RNA isolation and real time PCR analysis (Figure 6A).
Figure 6 Complex 5 inhibits NF-κB transactivation activity. (A) RAW264.7 cells pretreated with or without complex 5 for 4 h were treated with LPS for 4 h. The expression of TNFα, IFNβ, IL6 and IP10 were measured by QPCR. (B) HeLa S3 cells pretreated with or without complex 5 for 4 h were stimulated with TNFα for 4 h. The expression of TNFα, IL8, CCL5, ICAM1, IL6 and A20 were measured by QPCR. (C) K562 or KCL22 cells pretreated with or without 50 µg/ml of complex 5 for 4 h were stimulated with 100 ng/ml TNFα for 2 h. The expression of IL8 and TNF were measured by QPCR. […] Cell lysates were prepared and the luciferase activities were measured. […]

ORAC antioxidant assay = type: physicochemical
Procedure: ORAC assay was performed based on reported procedures with slight modifications. Chemicals used such as fluorescein sodium salt, AAPH (2,2′-Azobis(2-methylpropionamidine) dihydrochloride), quercetin dehydrate and trolox ((±)-6-Hydroxy-2,5,7,8-tetramethylchromane-2-carboxylic acid) were purchased from Sigma-Aldrich. Compounds were diluted to a final concentration of 100 µg/ml, with total reaction volume of 200 µl. The assay was performed in a 96-well black microplate, with 25 µl of samples, standard (trolox), blank (solvent/PBS) or positive control (quercetin). Subsequently, 150 µl of working fluorescein solution was added to each well. The plate was incubated at 37°C for at least 5 min. Then, 25 µl of AAPH working solution was then added to the wells to make a total volume of 200 µl. […] Data were collected every 2 min for a duration of 2 h, and were analyzed by calculating the differences of area under fluorescence decay curve (AUC) of samples and blank. The values were expressed as Trolox equivalent (TE).
ROS may amplify inflammatory responses via up-regulation or activation of certain genes/transcription factors, such as NF-κB. […] Therefore, we conducted ORAC assays to investigate the antioxidant capacity of complex 5. The ORAC assay uses peroxyl radical as pro-oxidant and the antioxidant activity is quantified via area under curve (AUC). We included quercetin, a known antioxidant, as a positive control.

[3] = tested on: NF-κB transactivation activity; test: NF-κB luciferase reporter assay in 293T-luc cells; type: cell-based; conditions: 293T-luc, 12.5, 25, 50 µg/ml 4 h, TNFα 12 h
Procedure: 293T cells were transduced with a lentivirus carrying luciferase reporter driven by NF-κB enhancer found in immunoglobulin kappa light chain gene to prepare 293T-luc cells. The 293T-luc cells were pretreated with or without of complex 5 (12.5 µg/ml, 25 µg/ml, 50 µg/ml) for 4 h. The cells were later stimulated with TNFα (10 ng/ml) for 12 h. Cells were scraped, collected into 1.5 ml tubes and centrifuged at 1.5 k rpm 4°C for 5 min before removing the culture medium. Cell pellets were resuspended in 50 µl luciferase lysis buffer (100 mM Sodium Phosphate buffer, pH7.8; 8 mM MgCl2; 1% Triton X-100; 15% glycerol; 1 mM DTT). A total volume of 50 µl of luciferase substrate (containing 1 mM ATP; 0.25 mM luciferin; 1% BSA) was added to each well on a white 96-well plate containing 20 µg lysate. Luciferase activity was measured in 96-well plate with a VarioskanFlash microplate reader (Thermo Scientific).
Figure 6 Complex 5 inhibits NF-κB transactivation activity. (A) RAW264.7 cells pretreated with or without complex 5 for 4 h were treated with LPS for 4 h. The expression of TNFα, IFNβ, IL6 and IP10 were measured by QPCR. […] The expression of TNFα, IL8, CCL5, ICAM1, IL6 and A20 were measured by QPCR. […] The expression of IL8 and TNF were measured by QPCR. […] Cell lysates were prepared and the luciferase activities were measured. […]

## NC1=[S+][Ni-2]2([P+](c3ccccc3)(c3ccccc3)c3ccccc3)[O]c3c(O)cccc3C=[N+]2N1.[Cl-] [complex 5, {2-[(2-Carbamothiolylhydrazin-1-ylidene-[kappa]2N1,S)methyl]-6-hydroxyphenolato-[kappa]O1}(triphenylphosphine-[kappa]P)nickel(II) chloride]
[1]
  Inhibition of LPS-mediated NF-κB p65 nuclear translocation: efficiently inhibited; also recorded: marked inhibition
[2]
  LPS-induced expression of TNFα, IFNβ, IL6 and IP10 (QPCR): abolished
ORAC antioxidant assay
  Antioxidant activity compared to quercetin: low antioxidant activity
  Antioxidant capacity, Trolox equivalent: 10.56±0.17 µM TE per 100 µM
[3]
  TNFα-induced NF-κB luciferase activity: significantly reduced the luciferase activity in a dose-dependent manner
